According to a melting point compilation (Tetko et al.):

Row | Structure (SMILES) | melting point [°C]
1 | NCC(O)c1ccccc1C(F)(F)F (stereo unspecified) | 106 to 108
2 | Cc1cc(C)cc(C2(C(=O)O)CC2)c1 | 164 to 166
3 | CN1C(=O)C(=O)N(CC(=O)O)C1=O | 191 to 193
4 | O=C(O)CCC1NC(=O)N(c2ccc(Cl)c(Cl)c2)C1=O (stereo unspecified) | 173 to 175
5 | Nc1ncc(C(O)(C(F)(F)F)C(F)(F)F)s1 | 184 to 186
6 | O=c1[nH]nc2n1CCNC2 | 179 to 181
7 | Nc1cccc(C(=O)N2CCC(O)CC2)c1 | 128 to 130
8 | COc1cc(C(=O)O)n(-c2ncccc2Cl)n1 | 242 to 244
9 | Clc1ccc(C2CC2)nn1 | 103 to 105
10 | NC1CCS(=O)(=O)c2ccc(Cl)cc21 (stereo unspecified) | 57 to 59
11 | CC(C)CNCC(O)c1ccccc1 (stereo unspecified) | 61 to 63
12 | Cn1c(S)nc2cc(S(N)(=O)=O)ccc21 | 313 to 315
13 | O=C(Nc1nncs1)C1CCNCC1 | 202 to 204
14 | COc1cc(C=O)ccc1Oc1ccc(S(=O)(=O)N2CCCCC2)cc1[N+](=O)[O-] | 173 to 175
15 | Cn1c(=O)c2nc(SCC(=O)O)[nH]c2n(C)c1=O | 259 to 261
16 | N#Cc1nc(N)[nH]c1C#N | 270 to 272
17 | O=S(=O)(F)c1ccc2cn[nH]c2c1 | 219 to 221
18 | Cc1nn(C)c2ncc(CCl)cc12 | 171 to 173
19 | O=C(CCl)N1CCN(S(=O)(=O)c2ccc(Cl)s2)CC1 | 240 to 245
20 | OC1CCc2ccc(F)cc21 (stereo unspecified) | 41 to 43
21 | O=S(=O)(Cl)c1cc2c(cc1Br)OCCCO2 | 105 to 107
22 | CC(=O)Nc1ccc(S(=O)(=O)Cl)cc1[N+](=O)[O-] | 89 to 91
23 | CN(CCO)C1(CN)CCCCC1 | 73 to 75
24 | O=C(O)COc1cc(C(F)(F)F)cc(C(F)(F)F)c1 | 102 to 104
25 | Cc1nc2[nH]cnc2cc1Br | 197 to 199
26 | Cc1cc(CC(=O)O)n[nH]1 | 116 to 118
27 | COc1ccc2nc(C)nc(Cl)c2c1 | 119 to 121
28 | CCOC(=O)c1cc(C)nc2onc(C)c12 | 64 to 66

The next lines start with the values.

Row | melting point [°C] | Structure (SMILES)
29 | 121 to 123 | Cc1nc2ccccc2nc1CCl
30 | 91 to 93 | Cc1ccc(-c2csc(CC#N)n2)cc1
31 | 44 to 46 | O=C(Nc1ccccc1Cl)OCC(F)(F)F
32 | 179 to 181 | N#CCCn1cc(C(=O)O)c(-c2cccc3ccccc23)n1
33 | 268 to 270 | Nc1cccc2c1C(=O)NC2=O
34 | 39 to 41 | COc1cc(N)cc(Br)c1
35 | 204 to 206 | Cc1ccc(NC(=O)C(=O)NN)cc1
36 | 157 to 159 | COc1ccc(C=C2CCCc3c2nc2ccccc2c3C(=O)O)cc1
37 | 96 to 98 | O=C1COc2cccc(S(=O)(=O)Cl)c2N1
38 | 162 to 164 | COC(=O)c1nc(Cl)c2ccccc2c1O
39 | 117 to 119 | CNS(=O)(=O)c1ccc(N)cc1C
40 | 166 to 168 | Ic1cnc2ccccn12
41 | 152 to 154 | Nc1ccc(CC2NC(=O)NC2=O)cc1 (stereo unspecified)
42 | 120 to 122 | COC(=O)c1sccc1S(N)(=O)=O
43 | 251 to 253 | Cc1ccc(-c2cc(C(=O)O)[nH]n2)cc1
44 | 149 to 151 | CC(C)NC(=O)c1ccc(N)cc1
45 | 204 to 206 | O=C(O)c1ccc(Oc2cccnc2)cc1
46 | 155 to 157 | O=C(O)C=Cc1cc(Br)ccc1OC(F)F
47 | 144 to 146 | Nc1onc(-c2ccccc2)c1-c1ccccc1
48 | 177 to 179 | O=C(O)CNC(=O)c1ccc(Br)s1
49 | 77 to 79 | OC(c1cnn(-c2ccccc2)c1)C(F)(F)F (stereo unspecified)
50 | 223 to 225 | COc1cccc(C(N)CC(=O)O)c1 (stereo unspecified)
51 | 175 to 177 | CN(C)c1cccc(-c2nnc(N)o2)c1
52 | 266 to 268 | O=C(O)CNc1ccc(C(=O)O)cc1
53 | 49 to 51 | Brc1ccc(NCc2cccs2)cc1
54 | 64 to 66 | CC(CC(=O)O)c1ccc(F)cc1 (stereo unspecified)
55 | 116 to 118 | Clc1cc(CBr)c2ncccc2c1
56 | 148 to 150 | COCCCNc1c(N)n(Cc2ccccc2)c(=O)[nH]c1=O
